From ChEMBL document CHEMBL5518249, “Structure-Guided Discovery and Preclinical Assessment of Novel (Thiophen-3-yl)aminopyrimidine Derivatives as Potent ERK1/2 Inhibitors” (J Med Chem, 2024)

Columns and labels:
MDA-MB-231 [1] = experiment: cells; settings: Homo sapiens, MDA-MB-231, 24 h
Description: Antiproliferative activity against human MDA-MB-231 cells assessed as cell viability incubated for 24 hrs by methyl thiazolyl tetrazolium (MTT) assay

RKO [2] = experiment: cells; settings: Homo sapiens, 24 h
Description: Antiproliferative activity against human RKO cells assessed as cell viability incubated for 24 hrs by methyl thiazolyl tetrazolium (MTT) assay

MDA-MB-231 [3] = experiment: animal or person; assay type: functional, Homo sapiens; settings: Mus musculus, MDA-MB-231, po, 360 h, route ig, time 15 day, read-out: TGI
Description: In vivo antitumor activity against human MDA-MB-231 cells xenografted in BALB/c mouse model assessed as tumor growth inhibition at 50 mg/kg, IG once daily for 15 days relative to control

RKO [4] = experiment: animal or person; assay type: functional, Homo sapiens; settings: Mus musculus, po, 360 h, route ig, time 15 day, read-out: TGI
Description: In vivo antitumor activity against human RKO cells xenografted in BALB/c mouse model assessed as tumor growth inhibition at 50 mg/kg, IG once daily for 15 days relative to control

[5] = target: Mitogen-activated protein kinase 3 (Homo sapiens, UniProt P27361)
Mitogen-activated protein kinase 3, sequence (P27361 whole entry): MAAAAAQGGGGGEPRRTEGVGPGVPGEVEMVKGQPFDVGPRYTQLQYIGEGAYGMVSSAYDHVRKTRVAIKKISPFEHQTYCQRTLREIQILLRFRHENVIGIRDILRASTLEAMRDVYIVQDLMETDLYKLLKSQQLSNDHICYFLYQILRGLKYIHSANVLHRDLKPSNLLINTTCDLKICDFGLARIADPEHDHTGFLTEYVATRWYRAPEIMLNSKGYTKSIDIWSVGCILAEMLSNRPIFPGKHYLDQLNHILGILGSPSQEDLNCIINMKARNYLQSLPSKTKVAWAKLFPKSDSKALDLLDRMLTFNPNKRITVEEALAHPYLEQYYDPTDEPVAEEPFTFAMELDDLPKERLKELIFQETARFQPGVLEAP
Description: Inhibition of ERK1 (unknown origin) assessed as luminescence in presence of ATP incubated for 90 mins by ADP-Glo kinase assay

COc1cccc(CNC(=O)c2cc(-c3nc(Nc4ccnn4C)ncc3Cl)cs2)c1
IC50 (MDA-MB-231 [1]): 29.4 µM | IC50 (RKO [2]): 33.4 µM

Cn1nccc1Nc1ncc(Cl)c(-c2csc(C(=O)NCCN3CCOCC3)c2)n1
IC50 (MDA-MB-231 [1]): 39.4 µM | IC50 (RKO [2]): 50.6 µM

Cn1ccc(Nc2ncc(Cl)c(-c3csc(C(=O)NCc4ccc(F)c(Cl)c4)c3)n2)n1
IC50 (MDA-MB-231 [1]): > 50 µM | IC50 (RKO [2]): 49.4 µM

Cn1nccc1Nc1ncc(Cl)c(-c2csc(C(=O)NCc3ccc(F)cc3F)c2)n1
IC50 (MDA-MB-231 [1]): > 50 µM | IC50 (RKO [2]): > 50 µM

Cn1nccc1Nc1ncc(Cl)c(-c2csc(C(=O)NCc3ccccc3Br)c2)n1
IC50 (MDA-MB-231 [1]): > 50 µM | IC50 (RKO [2]): > 50 µM

Cn1nccc1Nc1ncc(Cl)c(-c2csc(C(=O)NCc3ccccc3F)c2)n1
IC50 (MDA-MB-231 [1]): > 50 µM | IC50 (RKO [2]): > 50 µM

Cn1nccc1Nc1ncc(Cl)c(-c2csc(C(=O)NCc3ccc(F)cc3)c2)n1
IC50 (MDA-MB-231 [1]): 15.8 µM | IC50 (RKO [2]): 14.5 µM

CC(C)Nc1cc(-c2c[nH]c(C(=O)N[C@H](CO)c3cccc(Cl)c3)c2)c(Cl)cn1 [ULIXERTINIB]
inhibition in vivo at 50 mg/kg (MDA-MB-231 [3]): 39.3% | inhibition in vivo at 50 mg/kg (RKO [4]): 47.4%

Cn1nccc1Nc1ncc(Cl)c(-c2csc(C(=O)NCc3ccc(Cl)c(F)c3)c2)n1
IC50 (MDA-MB-231 [1]): 11.5 µM | IC50 (RKO [2]): 12.6 µM

Cn1cc(Nc2ncc(Cl)c(-c3csc(C(=O)NCc4ccc(F)c(Cl)c4)c3)n2)c(C(F)(F)F)n1
IC50 (MDA-MB-231 [1]): > 50 µM | IC50 (RKO [2]): > 50 µM

Cn1nccc1Nc1ncc(Cl)c(-c2csc(C(=O)NC3CCOCC3)c2)n1
IC50 [5]: 0.0254 µM

COc1ccccc1CNC(=O)c1cc(-c2nc(Nc3ccnn3C)ncc2Cl)cs1
IC50 (MDA-MB-231 [1]): > 50 µM | IC50 (RKO [2]): > 50 µM

Cn1nccc1Nc1ncc(Cl)c(-c2csc(C(=O)NCc3ccc(C(F)(F)F)cc3)c2)n1
IC50 (MDA-MB-231 [1]): 39.4 µM | IC50 (RKO [2]): 41.2 µM

Cn1nccc1Nc1ncc(Cl)c(-c2csc(C(=O)NCc3cccc(C(F)(F)F)c3)c2)n1
IC50 (MDA-MB-231 [1]): 21.1 µM | IC50 (RKO [2]): 24.5 µM

Cn1nccc1Nc1ncc(Cl)c(-c2csc(C(=O)NCc3cccc(Br)c3)c2)n1
IC50 (MDA-MB-231 [1]): > 50 µM | IC50 (RKO [2]): > 50 µM

Cn1nccc1Nc1ncc(Cl)c(-c2csc(C(=O)NCc3ccc(Cl)cc3F)c2)n1
IC50 (MDA-MB-231 [1]): 48.2 µM | IC50 (RKO [2]): 39 µM

Cn1nccc1Nc1ncc(Cl)c(-c2csc(C(=O)NCc3ccc(Cl)c(Cl)c3)c2)n1
IC50 (MDA-MB-231 [1]): 12.4 µM | IC50 (RKO [2]): 10.2 µM

Cc1cnccc1Nc1ncc(Cl)c(-c2csc(C(=O)NCc3ccc(F)c(Cl)c3)c2)n1
IC50 (MDA-MB-231 [1]): 6.26 µM | IC50 (RKO [2]): 5.41 µM

Cn1cc(Nc2ncc(Cl)c(-c3csc(C(=O)NCc4ccc(F)c(Cl)c4)c3)n2)cn1
IC50 (MDA-MB-231 [1]): 36.6 µM | IC50 (RKO [2]): 20.2 µM
